Series [1] addresses T1, Kgp (Porphyromonas gingivalis (Bacteroides gingivalis), UniProt Q51817). Kind of series: Activity probe labeling of Kgp in P. gingivalis-infected Jurkat cells. The series is classed as cell-based. The source says:
The identity of this labeled protein in P. gingivalis-infected cells was confirmed to be Kgp by Western blot.

Series [2] can be described thus: Oral pharmacokinetics in CD-1 mice. The class given is in vivo. The note with it: male CD-1 mice, p.o. 10 mg/kg; for oral availability / plasma concentrations: as compared to reference compound 73.
A further series has as its target lysine gingipain (Kgp) (Porphyromonas gingivalis (strain ATCC 33277 / DSM 20709 / CIP 103683 / JCM 12257 / NCTC 11834 / 2561), UniProt B2RLK2). Kind of series: Inhibition of lysine gingipain, fluorogenic assay (Z-His-Glu-Lys-MCA). The class given is biochemical. The note with it: as compared to reference compound 73. On the procedure:
The specific assay conditions were as follows. Buffer: pH=7.5, 100 mM Tris-HCl, 75 mM NaCl, 2.5 mM CaCl2, 10 mM cysteine, 1% DMSO after all additions. Protein: 0.1 nM Kgp, isolated from culture of Porphyromonas gingivalis, as described by Pike et al. (J. Biol. Chem. 1994, 269(1), 406), and Potempa and Nguyen (Current Protocols in Protein Science. 2007, 21.20.1-21.20.27). Fluorogenic substrate: 10 μM Z-His-Glu-Lys-MCA. Time=90 minutes. Temperature=37° C.
Further assays to measure the inhibitory activity of compounds of the present invention against Kgp and cathepsins B, H, K, L, and S were conducted as described in Example 66. The capacities of the compounds to inhibit the activity of cathepsins F, V, and Z were also measured.

In a further series the test system is P. gingivalis infection. Kind of series: Related studies: brain abeta42 and neuroinflammation. The class given is in vivo. The source says:
By inhibiting Kgp, the compounds disclosed herein can treat P. gingivalis infection itself, as well as the detrimental effects of neurological disease and other infection-associated conditions.

Series [3] deals with T1, Kgp. As to the kind of experiment: Detection of Kgp with Cy5 activity-based probe (SDS-PAGE, Cy5 visualization). The class given is binding. The following applies: 100 nM preincubation, P. gingivalis W83. On the procedure:
It has a warhead that binds to the Kgp active site, a peptide-based core, and a Cy5 fluorophore for detection. Labeled target proteins can be visualized by biochemical separation of a sample with fractionation by 2-D gel electrophoresis and detection of fluorescent signals from Cy5 at the appropriate excitation and emission wavelength. Incubation of a fixed concentration of the probe following binding of Kgp to a test compound (e.g., a candidate Kgp inhibitor) results in binding of the activity probe to Kgp active sites not already bound by the test compound.
Preparation of P. gingivalis lysate. 10^8 bacteria were collected and centrifuged at 5000 g for 10 min at 4° C., and the supernatant was discarded. The bacterial cell pellet was lysed with 1 mL of B-Per lysis buffer (Thermo Fischer) on ice for 10 min, then centrifuged for 10 min at 14000 g, 4° C. Supernatant-containing protein lysate was collected. Biological samples were lysed with B-Per lysis buffer for 10 min at 4° C.
Cy5 direct labeling of Kgp. Biological samples, P. gingivalis lysate or purified Kgp were incubated with quenchable Cy5 probe compound 71 (1 μM) for 1 h at 37° C. with shaking. […]

A further series relates to P. gingivalis W83. As to the kind of experiment: Experimental periodontitis / P. gingivalis infection mouse model. The series is classed as in vivo, BALB/C female mice. The note with it: for alveolar bone loss: week 5-10, vs vehicle; for reduction in P. gingivalis DNA copy number (RgpB gene) in brain tissue: between week 5 and 10. The source says:
P. gingivalis applied over several weeks directly to the gingiva of mice has been used as a model for periodontitis. Alveolar bone resorption, a hallmark of periodontitis progression, is typically observed when this model employed. More recently, use of the model has also led to the discovery of a significant amount P. gingivalis in the brain, which accumulates concomitantly with oral colonization and which subsequently leads to detrimental effects such as inflammation and loss of hippocampal neurons.
At the beginning of the study, eight week old BALB/C female mice received antibiotic in drinking water (sulfamethoxazolum 0.87 mg/mL, trimethoprimum 0.17 mg/mL) for 10 days to reduce microbiome protection from experiment infection. Experimental periodontitis was induced by ligature placement followed by multiple exposures to P. gingivalis. During the ligature procedure mice were anesthetized with an intraperitoneal injection of ketamine (200 mg/kg) and xylazine (10 mg/kg), and eyes were lubricated with ointment (Puralube Vet; Pharmaderm, Melville, N.Y.). Next, a 5-0 silk ligature (Roboz Surgical Instrument Co.) was tied around the upper maxillary left and right second molar. Sutures were applied and tied gently to prevent damage to the periodontal tissue.
Mice (n=8-10/arm) were infected for 6 weeks every other day. For infection, 100 μL of bacteria solution were applied topically to the buccal surface of the maxillae. For preparation of the bacteria, P. gingivalis W83 (ATCC, Rockville, Md.) was streaked on Tryptic Soy Broth (TSB) agar plates (5% sheep blood, supplemented with 0.5 mg/mL L-cysteine, 5 μg/mL hemin, and 0.5 μg/mL vitamin K) and grown under anaerobic conditions at 37° C. for 5-7 days. Samples were then inoculated in TSB with hemin, vitamin K and L-cysteine (TSB-HKC) until mid-log phase (OD600=0.5-0.7). Bacteria were washed in PBS and prepared at final concentration of 1×10^10 cells/mL in PBS+2% methylcellulose (CMC).
Vehicle-treated animals received PBS only. At 5 weeks, a subgroup of animals (n=16) were euthanized to gather baseline measurements before the start of treatment. After 10 weeks, mice were euthanized and the brain, serum, and maxillary tissues were harvested and frozen in liquid nitrogen.
Bone loss in the maxillae was measured ex vivo blinded using OsiriX MD software (PixmeoSARL, Bernex, Switzerland). Point of measurements were obtained using 3D Multi Planar Reconstruction (MPR) view where the maxillae were sliced straight along the superficial roots of second molar and the posterior root of first molar, with a tangent of the anterior root of the first molar. The distance between the cementoenamel junction (CEJ) and the alveolar bone crest (ABC) was measured from the CEJ to a reference line on the ABC which was placed perpendicular to the superficial root one each side of the second molar. […] (ANOVA: F (5, 24)=15.71, p<0.0001; t-test with Bonferroni correction: **p<0.005, ***p<0.001).
DNA was extracted from brain tissue using the DNeasyBLOOD & TISSUE KIT (Qiagen, Germany) according to manufacturer's protocol. Taqman qPCR was performed with Kapa Probe fast qPCR Mix (Rox Low) on a Bio-Rad CFX96 Real-Time System C1000 Touch ThermalCycler with forward and reverse primers, and a detection probe. The primers were based on a single copy of P. gingivalis arginine-specific cysteine-proteinase gene. Duplicate samples were assayed in a total volume of 10 μL, containing 100 ng of template brain genomic DNA solution, TaqMan Universal PCR Master Mix (2×) (Kapa Biosystems, USA), and the specific set of primers (final concentration 5 μM) and probe (final concentration 4 μM) (GenoMed, Poland), corresponding to 562.5 nM for the forward and reverse primers and 100 nM for the probe primer. After an initial incubation step of 2 min at 50° C. and denaturation for 95° C. for 20 sec, 40 PCR cycles (95° C. for 20 s, 60° C. for 30 sec) were performed. […]

The conditions of series [4]: in vivo, po; cited from earlier work.

For `C[N+]1=C(/C=C/C=C/C=C2\N(CCCCCC(=O)NCc3cn(-c4cccc(C(=O)N[C@@H](CCCCN)C(=O)COc5c(F)cccc5F)c4)nn3)c3ccc(S(=O)(=O)O)cc3C2(C)C)C(C)(C)c2cc(S(=O)(=O)O)ccc21` [Compound 70], the “effect of preincubation on binding of probe 15a to Kgp” value on Kgp [1] (infected Jurkat cells, preincubation 1 hour) is recorded as “blocked the binding”.
Regarding `COC(C)(C)C(=O)N[C@@H](CCCCN)C(=O)COc1c(F)ccc(F)c1F` [Compound 47, (S)—N-(7-amino-2-oxo-1-(2,3,6-trifluorophenoxy)heptan-3-yl)-2-methoxy-2-methylpropanamide], in series [2], the “concentrations in the brain and cerebrospinal fluid (CSF)” value is on record as “increased”; the oral availability entry is “improved”; the plasma concentrations result was “increased”. For the same compound, at lysine gingipain (Kgp), the “selectivity for Kgp over endogenous cathepsins” value was “far more selective”.
`CC1=CC(C)=[N+]2C1=Cc1ccc(CCC(=O)NCc3cn(-c4cccc(C(=O)NC(CCCCN)C(=O)COc5c(F)cccc5F)c4)nn3)n1[B-]2(F)F` (stereo not shown) [Compound 15a]: the “binding to purified Kgp and to Kgp in infected cells” value at Kgp [1] (FIG. 6A) is “irreversibly binds”.
For `NCCCC[C@H](NC(=O)C1CCCC1)C(=O)COc1c(F)ccc(F)c1F` [Compound 1, (S)—N-(7-amino-2-oxo-1-(2,3,6-trifluorophenoxy)heptan-3-yl)cyclopentanecarboxamide], the “induction of brain abeta42” value in the series with P. gingivalis infection is reported as “reduce”. The neuroinflammation result in the series with P. gingivalis infection was “reduce”. Also, the oral availability entry in series [2] is given as “improved”. Also, the plasma concentrations result in series [2] is listed as “increased”. The “competition for Kgp active site binding with probe compound 71” value at Kgp [3] was “competes for active site binding”. Moreover, the figures for the alveolar bone loss entry in the series on P. gingivalis W83 (3 mg/kg orally b.i.d.), in the series on P. gingivalis W83 (10 mg/kg orally b.i.d.) and in the series with P. gingivalis W83 (30 mg/kg orally b.i.d.) were “trended to improvement but did not result in significant improvement”, “improved” and “improved”, respectively. Moreover, the entries for the “reduction in P. gingivalis DNA copy number (RgpB gene) in brain tissue” value in the series with P. gingivalis W83 (3 mg/kg), in the series with P. gingivalis W83 (10 mg/kg) and in the series on P. gingivalis W83 (30 mg/kg) were 50%, 50% and 80%, respectively. Also, in the series on P. gingivalis W83 (10 weeks, infected untreated mice lost 25%), the “GAD67 positive interneurons in the dentate gyrus” value is listed as “at the same level as the GAD67^+ cells in the mock-infected mice”.
Consider `CN(NC(=O)CC[C@H](NC(=O)OCc1ccccc1)C(=O)N[C@@H](CCCCN)C(=O)C(=O)NCc1ccccc1)c1ccccc1` [Kyt-36], for which, in series [4], the half-life result is reported as “increases”.

Values taken from patent US11325884B2, “Ketone inhibitors of lysine gingipain” (CORTEXYME, INC., priority 2016, dated 2022).
